Data as given in patent US20260297129A1, “PEPTIDES AS SELECTIVE IL-23 RECEPTOR INHIBITORS” (SANOFI, priority 2023, published 2026).
Like-named read-outs stand apart in the source and are kept apart here. Numbered stars: 1 amine (or outer) side, 2 acyl side, 3 side chain; on linkers, the order of the positions; unused ones are H or OH. Bridge positions count the residues as written; N and C are the ends. Square brackets hold non-standard residues; d marks the D form. Peptide text beside a SMILES is read from it. * marks the point of attachment. Lys(Me,(CH2)4NMe(CH2)5CO) = CN(CCCCCC(=O)[*:3])CCCCN(C)CCCC[C@H](N[*:1])C(=O)[*:2]; X2 = O=C(Cc1ccc(-c2ccc(CC(=O)[*:2])cc2)cc1)[*:1]; Trp(7-Me) = Cc1cccc2c(C[C@H](N)C(=O)O)c[nH]c12; 2Nal = N[C@@H](Cc1ccc2ccccc2c1)C(=O)O; 3Pal = N[C@@H](Cc1cccnc1)C(=O)O; AEEEA = NCCOCCOCCOCC(=O)O; Thp = NC1(C(=O)O)CCOCC1; Me2NCH2CH2 = CN(C)CC*; Aib = CC(C)(N)C(=O)O; Sar = CNCC(=O)O

What was measured:
[1] = Protease stability in simulated gastric fluids (FaSSGF) (Table 7); assay type: in vitro ADME; conditions: fassgf with pepsin, 60 min, 37° C., read-out: Remaining percentage of peptide compound, FaSSGF 60 (min)
Outline: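 Peptides at 1 μM final were incubated at 37 °C in simulated gastric fluid with pepsin (320 mg per 100 mL SGF concentrate). Samples were quenched with ethanol (0.1% HCOOH) at 0, 60, 120 and 240 min and analysed by LC-MS/MS. Percent remaining is the peak area relative to T0 (100%).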

[2] = system: IL-23 induced STAT3 signaling (IL-23 receptor) in HEK-Blue IL-23 cells; experiment: Inhibition of IL-23 induced STAT3 signaling in HEK-Blue IL-23 cells, SEAP reporter (Table 9); assay type: cell-based; conditions: human IL23 0.25 ng/ml, overnight, read-out: Inhibition of IL-23 induced pSTAT3 (IC50 nM)
Outline: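 HEK-Blue IL-23 reporter cells (10,000/well) pre-incubated 60 min at 37 °C with serially diluted peptides, then stimulated overnight with human IL-23 at 0.25 ng/ml final. SEAP in supernatant read by QUANTI-Blue, 45 min room temperature, OD 620–655 nm; dose-response curve fitting.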

[3] = Protease stability in simulated intestinal fluids (FaSSIF) (Table 7); assay type: in vitro ADME; conditions: fassif with pancreatin, 37° C.; for remaining at 1 h, 1 µM: 60 min, read-out: Remaining percentage of peptide compound, FaSSIF 60 (min); for remaining at 2 h, 1 µM: 120 min, read-out: Remaining percentage of peptide compound, FaSSIF 120 (min); for remaining at 4 h, 1 µM: 240 min, read-out: Remaining percentage of peptide compound, FaSSIF 240 (min)
Outline: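 1 μM peptide incubated at 37° C in simulated fluid (pancreatin-SIF prepared from pancreatin in SIF concentrate). Samples quenched with acidified ethanol at 0, 60, 120 and 240 min and analysed by LC-MS/MS. Percentage remaining from peak area relative to T0 (100%).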

[4] = Chemical stability (relative purity loss) of peptide compounds in buffer formulations (Table 6); assay type: physicochemical; conditions: 2° C. and 37° C.
Outline: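 Compounds at 0.5 mg/mL in 50 mM HCl pH 1.2, 50 mM phosphate pH 6.5 or pH 7.4, each with acetonitrile (3:1), stored 24 hours at 2° C and 37° C. Purity measured by UHPLC-UV before and after. Stability expressed as relative purity loss.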

[5] = 50 mM phosphate buffer pH 6.5 + acetonitrile (3:1), read-out: Chemical stability (relative purity loss), Buffer pH 6.5
[6] = 50 mM phosphate buffer pH 7.4 + acetonitrile (3:1), read-out: Chemical stability (relative purity loss), Buffer pH 7.4
[7] = 50 mm hcl + acetonitrile, Buffer pH 1.1 (head; method: 50 mM HCl pH 1.2 + acetonitrile 3:1), read-out: Chemical stability (relative purity loss), Buffer pH 1.1

| Structure (SMILES) | remaining at 1 h, 1 µM [1] [%] | IC50 [2] [nM] | remaining at 1 h, 1 µM [3] [%] | remaining at 2 h, 1 µM [3] [%] | remaining at 4 h, 1 µM [3] [%] | degraded at 24 h [4, 5] [%] | degraded at 24 h [4, 6] [%] | degraded at 24 h [4, 7] [%] |
| --- | --- | --- | --- | --- | --- | --- | --- | --- |
| CC(=O)NCCCC[C@@H]1NC(=O)[C@H](Cc2c[nH]c3c(C)cccc23)NC(=O)CCCCCN(C)CCCCN(C)CCCC[C@@H](C(=O)N[C@@H](CC(N)=O)C(=O)N[C@@H](Cc2cccnc2)C(=O)N(C)CC(N)=O)NC(=O)C(C)(C)NC(=O)[C@H](Cc2ccc3ccccc3c2)NC(=O)[C@H](Cc2ccc(OCCN(C)C)cc2)NC(=O)C2(CCOCC2)NC1=O [compound 18] ([Trp(7-Me)]K(Ac)[Thp]Y(Me2NCH2CH2)[2Nal][Aib][Lys(Me,(CH2)4NMe(CH2)5CO)]N[3Pal][Sar]-NH2; lactam N-7) | 100 | 0.47 | 95 | 88 | 85 | 0 | 0 | 3.8 |
| Cc1cccc2c(C[C@@H]3NC(=O)COCCOCCOCCNC(=O)CC[C@@H](C(=O)N[C@@H](CC(N)=O)C(=O)N[C@@H](Cc4cccnc4)C(=O)N(C)CC(N)=O)NC(=O)C(C)(C)NC(=O)[C@H](Cc4ccc5ccccc5c4)NC(=O)[C@H](Cc4ccc(OCCN(C)C)cc4)NC(=O)C4(CCOCC4)NC(=O)[C@H](CCC(N)=O)NC3=O)c[nH]c12 [compound 14] ([AEEEA][Trp(7-Me)]Q[Thp]Y(Me2NCH2CH2)[2Nal][Aib]EN[3Pal][Sar]-NH2; lactam N-8) | 100 | 1.21 | 94 | 90 | 88 | 0 | 0 | 8.6 |
| Cc1cccc2c(C[C@@H]3NC(=O)Cc4ccc(cc4)-c4ccc(cc4)CC(=O)NCCCC[C@@H](C(=O)N[C@@H](CC(N)=O)C(=O)N[C@@H](Cc4cccnc4)C(=O)N(C)CC(N)=O)NC(=O)C(C)(C)NC(=O)[C@H](Cc4ccc5ccccc5c4)NC(=O)[C@H](Cc4ccc(OCCN(C)C)cc4)NC(=O)C4(CCOCC4)NC(=O)[C@H](CCC(N)=O)NC3=O)c[nH]c12 [compound 15] ([Trp(7-Me)]Q[Thp]Y(Me2NCH2CH2)[2Nal][Aib]KN[3Pal][Sar]-NH2; linker N-7 via X2) | 87 | 12 | 74 | 63 | 43 | 0 | 0.4 | 7.1 |
